The source of these data is patent US9212182B2, “Bicyclic sulfonamide compounds as sodium channel inhibitors” (AMGEN INC., priority 2013, dated 2015).

Like-named read-outs stand apart in the source and are kept apart here. Bounds are passed on as bounds.

This test concerns the target Nav 1.7 (Homo sapiens (Human), UniProt Q15858). The test is described as follows: in-vitro Nav 1.7 PX (IC50). The class given is cell-based.
The mark [1] stands for this setting: in-vitro Nav 1.7 PX data (PatchXpress).

Nav 1.7, sequence (Q15858 whole entry): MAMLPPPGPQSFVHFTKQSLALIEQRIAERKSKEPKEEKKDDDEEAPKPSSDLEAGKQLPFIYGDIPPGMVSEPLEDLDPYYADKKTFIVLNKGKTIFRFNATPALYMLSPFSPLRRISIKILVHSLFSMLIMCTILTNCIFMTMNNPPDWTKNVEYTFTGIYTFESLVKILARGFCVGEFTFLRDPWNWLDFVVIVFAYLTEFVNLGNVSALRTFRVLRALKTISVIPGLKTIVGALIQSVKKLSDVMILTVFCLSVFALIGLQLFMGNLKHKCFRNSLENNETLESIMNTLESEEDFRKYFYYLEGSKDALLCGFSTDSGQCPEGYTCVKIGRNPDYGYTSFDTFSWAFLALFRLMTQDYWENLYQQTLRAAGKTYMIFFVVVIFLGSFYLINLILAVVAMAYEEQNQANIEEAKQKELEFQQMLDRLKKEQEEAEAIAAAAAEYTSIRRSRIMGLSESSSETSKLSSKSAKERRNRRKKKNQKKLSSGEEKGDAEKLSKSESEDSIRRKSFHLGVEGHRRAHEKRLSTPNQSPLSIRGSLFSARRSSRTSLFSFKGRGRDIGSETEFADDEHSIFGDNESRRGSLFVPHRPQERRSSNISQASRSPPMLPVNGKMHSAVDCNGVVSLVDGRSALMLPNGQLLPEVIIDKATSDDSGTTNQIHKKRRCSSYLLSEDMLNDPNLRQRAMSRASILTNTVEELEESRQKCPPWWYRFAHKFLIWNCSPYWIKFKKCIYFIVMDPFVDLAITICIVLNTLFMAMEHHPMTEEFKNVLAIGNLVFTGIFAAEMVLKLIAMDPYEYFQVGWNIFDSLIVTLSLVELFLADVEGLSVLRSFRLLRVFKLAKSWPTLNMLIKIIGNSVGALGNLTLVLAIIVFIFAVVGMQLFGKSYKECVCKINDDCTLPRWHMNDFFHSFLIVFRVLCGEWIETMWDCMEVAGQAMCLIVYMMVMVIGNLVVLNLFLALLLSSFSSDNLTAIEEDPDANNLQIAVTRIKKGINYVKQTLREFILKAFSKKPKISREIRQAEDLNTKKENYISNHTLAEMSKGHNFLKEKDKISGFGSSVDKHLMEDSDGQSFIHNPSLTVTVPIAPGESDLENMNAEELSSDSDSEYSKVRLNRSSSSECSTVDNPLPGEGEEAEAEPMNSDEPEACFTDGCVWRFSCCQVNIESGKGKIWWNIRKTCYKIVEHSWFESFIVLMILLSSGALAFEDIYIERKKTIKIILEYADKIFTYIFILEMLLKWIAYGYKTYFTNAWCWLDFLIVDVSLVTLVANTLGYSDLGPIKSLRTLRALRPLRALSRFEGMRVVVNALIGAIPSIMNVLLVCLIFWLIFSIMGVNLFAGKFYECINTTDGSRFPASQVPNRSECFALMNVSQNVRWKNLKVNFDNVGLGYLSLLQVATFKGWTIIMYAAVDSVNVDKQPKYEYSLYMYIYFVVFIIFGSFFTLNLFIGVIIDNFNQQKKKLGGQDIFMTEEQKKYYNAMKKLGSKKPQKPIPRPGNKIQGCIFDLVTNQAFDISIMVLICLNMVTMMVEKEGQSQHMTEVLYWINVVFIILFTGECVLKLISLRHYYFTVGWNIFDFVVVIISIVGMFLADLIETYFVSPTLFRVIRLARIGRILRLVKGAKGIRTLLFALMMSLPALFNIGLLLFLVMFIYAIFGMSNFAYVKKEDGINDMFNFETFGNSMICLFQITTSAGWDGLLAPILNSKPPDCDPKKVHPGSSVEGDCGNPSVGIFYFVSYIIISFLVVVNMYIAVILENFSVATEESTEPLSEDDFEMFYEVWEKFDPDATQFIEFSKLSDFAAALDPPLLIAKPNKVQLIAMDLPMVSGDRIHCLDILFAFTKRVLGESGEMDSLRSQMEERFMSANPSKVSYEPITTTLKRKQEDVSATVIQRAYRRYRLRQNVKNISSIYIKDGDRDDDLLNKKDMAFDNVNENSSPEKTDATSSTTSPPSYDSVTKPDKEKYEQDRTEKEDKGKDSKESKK

For the molecule `COc1nc(-c2cccc(C)c2)c(Cl)cc1-n1c(=O)ccc2cc(S(=O)(=O)Nc3ccon3)ccc21` [Example 1089, 1-(5-chloro-2-methoxy-6-(3-methylphenyl)-3-pyridinyl)-N-3-isoxazolyl-2-oxo-1,2-dihydro-6-quinolinesulfonamide], the IC50 (in-vitro Nav 1.7 PX data) was found to be 3240 nM. This counts as single-digit micromolar.
Where the note is “in-vitro Nav 1.7 PX data”, `COc1cc(-c2cccc(Cl)c2OC)ccc1-n1c(=O)ccc2cc(S(=O)(=O)Nc3ccon3)ccc21` [Example 815, 1-(3′-chloro-2′,3-dimethoxy-4-biphenylyl)-N-3-isoxazolyl-2-oxo-1,2-dihydro-6-quinolinesulfonamide] displayed an IC50 of 56 nM.
In turn, `COc1ccc(-c2ccnn2C)cc1-n1c(=O)ccc2cc(S(=O)(=O)Nc3ccon3)ccc21` [Example 385, N-3-isoxazolyl-1-(2-methoxy-5-(1-methyl-1H-pyrazol-5-yl)phenyl)-2-oxo-1,2-dihydro-6-quinolinesulfonamide] showed an IC50 of 6230 nM.
For `COc1cc(-c2ccc(F)cc2)c(F)cc1-n1c(=O)cnc2cc(S(=O)(=O)Nc3ccon3)ccc21` [Example 1141, 1-(2,4′-difluoro-5-methoxy-4-biphenylyl)-N-3-isoxazolyl-2-oxo-1,2-dihydro-6-quinoxalinesulfonamide], the IC50 is 106 nM. This IC50 lies about 59-fold lower than the previous one.
On the same count and under the same terms, the same measure for `COc1nc(C2CC2)c(Cl)cc1-n1c(=O)ccc2cc(S(=O)(=O)Nc3ccon3)ccc21` (atropisomer, axis not shown; (P)) [Example 1230, (P)-1-(5-chloro-6-cyclopropyl-2-methoxy-3-pyridinyl)-N-3-isoxazolyl-2-oxo-1,2-dihydro-6-quinolinesulfonamide]: 472 nM.
The molecule `COc1cc(-c2ccc(F)cc2)ccc1-n1c(=O)ccc2cc(S(=O)(=O)Nc3ccon3)ccc21` [Example 1069, 1-(4′-fluoro-3-methoxy-4-biphenylyl)-N-3-isoxazolyl-2-oxo-1,2-dihydro-6-quinolinesulfonamide] gave a half-inhibitory concentration (IC50) under setting [1] of 71 nM.
Where the note is “in-vitro Nav 1.7 PX data”, `COc1ccc(-c2ccc(C)c(Cl)c2)cc1-n1c(=O)ccc2cc(S(=O)(=O)Nc3ccon3)ccc21` [Example 885, 1-(3′-chloro-4-methoxy-4′-methyl-3-biphenylyl)-N-3-isoxazolyl-2-oxo-1,2-dihydro-6-quinolinesulfonamide] had an IC50 of 12 nM.
`COc1cc(-c2cccnc2C)c(F)cc1-n1c(=O)ccc2cc(S(=O)(=O)Nc3ccon3)ccc21` [Example 737, 1-(5-fluoro-2-methoxy-4-(2-methyl-3-pyridinyl)phenyl)-N-3-isoxazolyl-2-oxo-1,2-dihydro-6-quinolinesulfonamide]: under “in-vitro Nav 1.7 PX data”, the IC50 was found to be 1250 nM. Compared with the last molecule, the IC50 is about 100-fold higher.
In turn, `COc1ccc(-c2cccc(Cl)c2C)cc1-n1c(=O)ccc2cc(S(=O)(=O)Nc3ccon3)ccc21` [Example 891, 1-(3′-chloro-4-methoxy-2′-methyl-3-biphenylyl)-N-3-isoxazolyl-2-oxo-1,2-dihydro-6-quinolinesulfonamide] came in with an IC50 (in-vitro Nav 1.7 PX data) of 20 nM.
As for `COc1nc(Oc2cc(F)ccc2F)c(Cl)cc1-n1c(=O)ccc2cc(S(=O)(=O)Nc3ccon3)ccc21` [Example 1225, 1-(5-chloro-6-(2,5-difluorophenoxy)-2-methoxy-3-pyridinyl)-N-3-isoxazolyl-2-oxo-1,2-dihydro-6-quinolinesulfonamide], 846 nM corresponded to half-maximal inhibition (IC50).
In turn, `CCOc1cccc(-c2cc(OC)c(-n3c(=O)ccc4cc(S(=O)(=O)Nc5ccon5)ccc43)cc2F)c1` [Example 727, 1-(3′-ethoxy-2-fluoro-5-methoxy-4-biphenylyl)-N-3-isoxazolyl-2-oxo-1,2-dihydro-6-quinolinesulfonamide] had an IC50 (in-vitro Nav 1.7 PX data) of 25 nM. This counts as double-digit nanomolar.
With `COc1cc(-c2cc(Cl)ccc2F)c(F)cc1-n1c(=O)ccc2cc(S(=O)(=O)Nc3ccon3)ccc21` [Example 707, 1-(5′-chloro-2,2′-difluoro-5-methoxy-4-biphenylyl)-N-3-isoxazolyl-2-oxo-1,2-dihydro-6-quinolinesulfonamide], 12 nM corresponded to half-maximal inhibition (in-vitro Nav 1.7 PX data) (IC50).
Same read-out and setting: the same measure for `COc1cc(-c2cc(Cl)cnc2OC)ccc1-n1c(=O)ccc2cc(S(=O)(=O)Nc3ccon3)ccc21` [Example 813, 1-(4-(5-chloro-2-methoxy-3-pyridinyl)-2-methoxyphenyl)-N-3-isoxazolyl-2-oxo-1,2-dihydro-6-quinolinesulfonamide]: 101 nM; for `COc1cc(-c2ccc(F)c(F)c2)c(F)cc1-n1c(=O)ccc2cc(S(=O)(=O)Nc3ncc(F)cn3)ccc21` [Example 937, N-(5-fluoro-2-pyrimidinyl)-2-oxo-1-(2,3′,4′-trifluoro-5-methoxy-4-biphenylyl)-1,2-dihydro-6-quinolinesulfonamide]: 29 nM; for `COc1cc(-c2ccc(C)c(Cl)c2)c(F)cc1-n1c(=O)ccc2cc(S(=O)(=O)Nc3ccon3)c(F)cc21` [Example 979, 1-(3′-chloro-2-fluoro-5-methoxy-4′-methyl-4-biphenylyl)-7-fluoro-N-3-isoxazolyl-2-oxo-1,2-dihydro-6-quinolinesulfonamide]: 21 nM.
In turn, `COc1ccc(-c2cncc(C#N)c2)cc1-n1c(=O)ccc2cc(S(=O)(=O)Nc3ccon3)ccc21` [Example 491, 1-(5-(5-cyano-3-pyridinyl)-2-methoxyphenyl)-N-3-isoxazolyl-2-oxo-1,2-dihydro-6-quinolinesulfonamide] returned an IC50 of 2070 nM.
Turning to `COc1cc(CC2CCC2)c(F)cc1-n1c(=O)ccc2cc(S(=O)(=O)Nc3ccon3)ccc21` [Example 1078, 1-(4-(cyclobutylmethyl)-5-fluoro-2-methoxyphenyl)-N-3-isoxazolyl-2-oxo-1,2-dihydro-6-quinolinesulfonamide], the IC50 (in-vitro Nav 1.7 PX data) amounted to 69 nM. In other words, the double-digit nanomolar range.
The same measure, in the same setting: the same measure for `COc1cc(-c2cc(OC)c(-n3c(=O)ccc4cc(S(=O)(=O)Nc5ccon5)ccc43)cc2F)c(Cl)cn1` [Example 759, 1-(4-(5-chloro-2-methoxy-4-pyridinyl)-5-fluoro-2-methoxyphenyl)-N-3-isoxazolyl-2-oxo-1,2-dihydro-6-quinolinesulfonamide]: 100 nM.
In turn, `COc1nc(-c2cc(F)cc(F)c2)c(Cl)cc1-n1c(=O)ccc2cc(S(=O)(=O)Nc3ccon3)ccc21` [Example 447, 1-(5-chloro-6-(3,5-difluorophenyl)-2-methoxypyridin-3-yl)-N-(isoxazol-3-yl)-2-oxo-1,2-dihydroquinoline-6-sulfonamide] yielded an IC50 (in-vitro PatchXpress (PX)) of 59 nM.
Take `COc1cc(CC2CCCCC2)c(F)cc1-n1c(=O)ccc2cc(S(=O)(=O)Nc3cccnn3)ccc21` [Example 1112, 1-(4-(cyclohexylmethyl)-5-fluoro-2-methoxyphenyl)-2-oxo-N-3-pyridazinyl-1,2-dihydro-6-quinolinesulfonamide]: half-maximal inhibition (in-vitro Nav 1.7 PX data) (IC50) required 25 nM. This counts as double-digit nanomolar.
Consider `COc1cc(-c2cccc(OC)c2F)c(C)cc1-n1c(=O)ccc2cc(S(=O)(=O)Nc3ncccn3)ccc21` [Example 964, 1-(2′-fluoro-3′,5-dimethoxy-2-methyl-4-biphenylyl)-2-oxo-N-2-pyrimidinyl-1,2-dihydro-6-quinolinesulfonamide], for which, where the note is “in-vitro Nav 1.7 PX data”, the IC50 was found to be 246 nM.
In the case of `COc1cc(Cl)cc(-c2cc(OC)c(-n3c(=O)ccc4cc(S(=O)(=O)Nc5ccon5)ccc43)cc2F)c1` (atropisomer, axis not shown; (M)) [Example 502, (M)-1-(3′-chloro-2-fluoro-5,5′-dimethoxy-4-biphenylyl)-N-3-isoxazolyl-2-oxo-1,2-dihydro-6-quinolinesulfonamide], inhibition (in-vitro PatchXpress (PX)) was half-maximal at 1230 nM (IC50).
Still for that read-out and setting: the same measure for `COc1cc(-c2ccc(C#N)c(Cl)c2)c(F)cc1-n1c(=O)ccc2cc(S(=O)(=O)Nc3ccon3)ccc21` (atropisomer, axis not shown; (M)) [Example 521, (M)-1-(3′-chloro-4′-cyano-2-fluoro-5-methoxy-4-biphenylyl)-N-3-isoxazolyl-2-oxo-1,2-dihydro-6-quinolinesulfonamide]: above 10000 nM.
The molecule `COc1cc(-c2ccc(Cl)c(C)c2)ccc1-n1c(=O)ccc2cc(S(=O)(=O)Nc3ncc(F)cn3)ccc21` (atropisomer, axis not shown; (P)) [Example 690, (P)-1-(4′-chloro-3-methoxy-3′-methyl-4-biphenylyl)-N-(5-fluoro-2-pyrimidinyl)-2-oxo-1,2-dihydro-6-quinolinesulfonamide] came in with an IC50 (in-vitro Nav 1.7 PX data) of 49 nM.
For the setting “in-vitro PatchXpress (PX)”, `COc1cc(-c2ccc(Cl)c(C#N)c2)c(F)cc1-n1c(=O)ccc2cc(S(=O)(=O)Nc3ccon3)ccc21` (atropisomer, axis not shown; (M)) [Example 509, (M)-1-(4′-chloro-3′-cyano-2-fluoro-5-methoxy-4-biphenylyl)-N-3-isoxazolyl-2-oxo-1,2-dihydro-6-quinolinesulfonamide] returned an IC50 of 1680 nM.
Turning to `COc1cc(-c2ccc(Cl)cc2)c(F)cc1-n1c(=O)ccc2cc(S(=O)(=O)Nc3ccon3)ccc21` [634/675, 1-(4′-chloro-2-fluoro-5-methoxy-4-biphenylyl)-N-3-isoxazolyl-2-oxo-1,2-dihydro-6-quinolinesulfonamide], the IC50 (in-vitro Nav 1.7 PX data) was determined as 13 nM.
Take `COc1cc(Br)ccc1-n1c(=O)ccc2cc(S(=O)(=O)Nc3cccnn3)ccc21` [Example 1050, 1-(4-bromo-2-methoxyphenyl)-2-oxo-N-3-pyridazinyl-1,2-dihydro-6-quinolinesulfonamide]: half-maximal inhibition under setting [1] (IC50) was put at 1430 nM.
As to `COc1cc(-c2cnc(OC)c(Cl)c2)c(F)cc1-n1c(=O)ccc2cc(S(=O)(=O)Nc3ccnc(C)n3)ccc21` (atropisomer, axis not shown; (P)) [Example 1160, (P)-1-(4-(5-chloro-6-methoxy-3-pyridinyl)-5-fluoro-2-methoxyphenyl)-N-(2-methyl-4-pyrimidinyl)-2-oxo-1,2-dihydro-6-quinolinesulfonamide], where the note is “in-vitro Nav 1.7 PX data, Table 4”, the IC50 is 42 nM.
In turn, `COc1cc(-c2ccc(Cl)c(C)c2)ccc1-n1c(=O)ccc2cc(S(=O)(=O)Nc3cccnn3)ccc21` (atropisomer, axis not shown; (M)) [Example 372, (M)-1-(4′-chloro-3-methoxy-3′-methyl-4-biphenylyl)-2-oxo-N-3-pyridazinyl-1,2-dihydro-6-quinolinesulfonamide] came in with an IC50 (in-vitro PatchXpress (PX)) of 29 nM. That is a double-digit nanomolar value.
Take `COc1cc(-c2cccc(F)c2)ccc1-n1c(=O)ccc2cc(S(=O)(=O)Nc3ccon3)ccc21` [Example 818, 1-(3′-fluoro-3-methoxy-4-biphenylyl)-N-3-isoxazolyl-2-oxo-1,2-dihydro-6-quinolinesulfonamide]: the midpoint of inhibition (in-vitro Nav 1.7 PX data), the IC50, lay at 38 nM. That is a double-digit nanomolar value.
